Source: paper PMC7217150, “Synthesis, Modification, and Biological Evaluation of a Library of Novel Water‐Soluble Thiopyridone‐Based Organometallic Complexes and Their Unexpected (Biological) Behavior” (Chemistry (Weinheim an Der Bergstrasse, Germany), 2020)
Like-named read-outs stand apart in the source and are kept apart here.

Key:
[1] = tested on: A549; test: MTT cytotoxicity assay, monolayer culture; assay type: cell-based, human; conditions: exposure time 96 h, means ± SDs
Description: (§1) A549 (non‐small cell lung carcinoma), SW480 and HCT‐116 (both colon carcinoma) were kindly provided by Brigitte Marian, Institute of Cancer Research, Department of Medicine I, Medical University of Vienna, Austria. The cell line CH1/PA‐1 (ovarian teratocarcinoma) was kindly provided by Lloyd R. Kelland (CRC Centre for Cancer Therapeutics, Institute of Cancer Research, Sutton, UK). All cell culture media (including supplements) and reagents were obtained from Sigma–Aldrich, and all plasticware from StarLab, unless indicated otherwise.

[2] = tested on: CH1/PA‐1; test: MTT cytotoxicity assay, monolayer culture; assay type: cell-based, human; conditions: CH1/PA‐1, MTT assay, exposure time 96 h, means ± SDs
Description: as §1

[3] = tested on: SW480; test: MTT cytotoxicity assay, monolayer culture; assay type: cell-based, human
Description: as §1

[4] = pH 7.2
Method: Stock solutions containing the desired complex in DMSO (5 mM) were diluted with phosphate buffer (pH 7.2) to a final concentration of […] compound in 1 % DMSO/20 mM buffer and directly analyzed by four different isocratic UHPLC runs (Δ=5 %). The lipophilicity parameters logkw and lipophilicity indices φ0 were calculated according to literature.7, 37

[5] = tested on: A549; conditions: A549 multicellular spheroids, 96 h drug exposure
Method: (§2) A549, CH1/PA‐1 and SW480 cells were grown in MEM supplemented with 10 % fetal calf serum (FCS; from Biowest), 1 mM sodium pyruvate, 4 mM L‐glutamine and 1 % v/v nonessential amino acids (from 100×solution) and L‐glutamine. HCT‐116 cells were maintained in McCoy's 5a medium supplemented with 10 % FCS and L‐glutamine. Adherent monolayer cultures were grown in 75 cm^2 flasks. For spheroid culture, A549, CH1/PA‐1 and HCT‐116 cells were harvested from culture flasks by trypsinization, resuspended in their respective supplemented medium and seeded in ultra‐low attachment round‐bottom 96‐well plates (Corning Costar) at a density of 500 viable cells per well. Plates were incubated for 96 h to allow spheroid formation prior to use for the tests. All cultures were incubated in a humidified incubator at 37 °C with 5 % CO2.
(§3) Cytotoxicity in multicellular spheroids was determined by the fluorimetric resazurin assay. […] After incubation for 96 h, 20 μL of a 440 μM resazurin sodium salt solution in PBS were added to each well, and the plates were incubated for further 16 h. Fluorescence was measured with a Synergy HT reader (BioTek) with an excitation wavelength of 530 nm and emission wavelength of 590 nm. For both assays, at least three independent experiments (or two in case of poor activity) were performed, each with triplicates per concentration level, and the 50 % inhibitory concentrations (IC50) relative to untreated controls were interpolated from concentration‐effect curves.

[6] = tested on: CH1/PA‐1; conditions: CH1/PA‐1 multicellular spheroids, 96 h drug exposure
Method: as §2, §3

[7] = tested on: HCT‐116; conditions: HCT‐116 multicellular spheroids, 96 h drug exposure
Method: as §2, §3

[8] = tested on: CH1/PA‐1; test: Cell cycle distribution, flow cytometry with propidium iodide; assay type: cell-based, human; conditions: for Cell cycle distribution G1, % / Cell cycle distribution G2/M, % / Cell cycle distribution S, %: 24 h, mean ± SD; for Relative change in cell cycle distribution G1, % / Relative change in cell cycle distribution G2/M, % / Relative change in cell cycle distribution S, %: difference to untreated control
Summary of the method: (§4)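 CH1/PA-1 and SW480 cells were allowed to attach for 24 h, then exposed continuously to compounds for 24 h at 37 °C. Nuclei were stained overnight at 4 °C with propidium iodide (50 μg mL^−1) in Triton/citrate buffer. 5×10^3 cells were analysed by flow cytometry, with G1/S/G2/M fractions fitted by the Watson Pragmatic model.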

[9] = tested on: SW480; test: as above; assay type: cell-based, human; conditions: for Cell cycle distribution G1, % / Cell cycle distribution G2/M, % / Cell cycle distribution S, %: 24 h, mean ± SD; for Relative change in cell cycle distribution G1, % / Relative change in cell cycle distribution G2/M, % / Relative change in cell cycle distribution S, %: difference to untreated control
Summary of the method: as §4

[10] = tested on: SW480 cells; conditions: for Cellular accumulation: ICP‐MS, 2 h exposure, 50 μM
[11] = SW480, MTT assay, exposure time 96 h, means ± SDs

CC1=C2[O][Ir+]([Cl])[S]=C2C=CN1C.Cc1c(C)c(C)[c-](C)c1C [Compound 6 a, Chlorido[1,2‐dimethyl‐3‐oxo‐κO‐pyridine‐4(1H)‐thionato‐κS](η^5‐1,2,3,4,5‐pentamethylcyclopentadienyl)iridium(III)]
IC50 [1]: 63 ± 6 µM
IC50 [2]: 7 ± 1.6 µM
IC50 [3, 11]: 4.2 ± 0.2 µM
IC50 ([3]; SW480, as listed in Table 3): 4.18 ± 0.19 µM
φ0 (chromatographic lipophilicity index) [4]: 5.75
IC50 [5]: 270 ± 17 µM
IC50 [6]: 131 ± 14 µM
IC50 [7]: 138 ± 6 µM
Cell cycle distribution G1, % ([8]; CH1/PA-1, 10 µM): 29 ± 3%
Cell cycle distribution G2/M, % ([8]; CH1/PA-1, 10 µM): 26 ± 4%
Cell cycle distribution S, % ([8]; CH1/PA-1, 10 µM): 45 ± 8%
Relative change in cell cycle distribution G1, % ([8]; CH1/PA-1, 10 µM): -11%
Relative change in cell cycle distribution G2/M, % ([8]; CH1/PA-1, 10 µM): 2%
Relative change in cell cycle distribution S, % ([8]; CH1/PA-1, 10 µM): 9%
Cell cycle distribution G1, % ([8]; CH1/PA-1, 20 µM): 33 ± 4%
Cell cycle distribution G2/M, % ([8]; CH1/PA-1, 20 µM): 26 ± 9%
Cell cycle distribution S, % ([8]; CH1/PA-1, 20 µM): 41 ± 10%
Relative change in cell cycle distribution G1, % ([8]; CH1/PA-1, 20 µM): -7%
Relative change in cell cycle distribution G2/M, % ([8]; CH1/PA-1, 20 µM): 2%
Relative change in cell cycle distribution S, % ([8]; CH1/PA-1, 20 µM): 5%
Cell cycle distribution G1, % ([8]; CH1/PA-1, 40 µM): 28 ± 6%
Cell cycle distribution G2/M, % ([8]; CH1/PA-1, 40 µM): 26 ± 4%
Cell cycle distribution S, % ([8]; CH1/PA-1, 40 µM): 45 ± 5%
Relative change in cell cycle distribution G1, % ([8]; CH1/PA-1, 40 µM): -12%
Relative change in cell cycle distribution G2/M, % ([8]; CH1/PA-1, 40 µM): 2%
Relative change in cell cycle distribution S, % ([8]; CH1/PA-1, 40 µM): 9%
Cell cycle distribution G1, % ([9]; SW480, 2.5 µM): 48 ± 2%
Cell cycle distribution G2/M, % ([9]; SW480, 2.5 µM): 19 ± 3%
Cell cycle distribution S, % ([9]; SW480, 2.5 µM): 32 ± 1%
Relative change in cell cycle distribution G1, % ([9]; SW480, 2.5 µM): 0%
Relative change in cell cycle distribution G2/M, % ([9]; SW480, 2.5 µM): 0%
Relative change in cell cycle distribution S, % ([9]; SW480, 2.5 µM): -1%
Cell cycle distribution G1, % ([9]; SW480, 5 µM): 41 ± 4%
Cell cycle distribution G2/M, % ([9]; SW480, 5 µM): 26 ± 5%
Cell cycle distribution S, % ([9]; SW480, 5 µM): 33 ± 9%
Relative change in cell cycle distribution G1, % ([9]; SW480, 5 µM): -7%
Relative change in cell cycle distribution G2/M, % ([9]; SW480, 5 µM): 7%
Relative change in cell cycle distribution S, % ([9]; SW480, 5 µM): 0%
Cell cycle distribution G1, % ([9]; SW480, 10 µM): 42 ± 4%
Cell cycle distribution G2/M, % ([9]; SW480, 10 µM): 17 ± 3%
Cell cycle distribution S, % ([9]; SW480, 10 µM): 42 ± 3%
Relative change in cell cycle distribution G1, % ([9]; SW480, 10 µM): -6%
Relative change in cell cycle distribution G2/M, % ([9]; SW480, 10 µM): -2%
Relative change in cell cycle distribution S, % ([9]; SW480, 10 µM): 9%
cellular concentration relative to 3 a [10]: about 47 times
Cellular accumulation [10]: 986±152 fg/cell

CC1=C2[O][Rh+]([Cl])[S]=C2C=CN1C.Cc1c(C)c(C)[c-](C)c1C [Compound 5 a, Chlorido[1,2‐dimethyl‐3‐oxo‐κO‐pyridine‐4(1H)‐thionato‐κS](η^5‐1,2,3,4,5‐pentamethylcyclopentadienyl)rhodium(III)]
IC50 [1]: 117 ± 19 µM
IC50 [2]: 11 ± 2 µM
IC50 [3, 11]: 5.5 ± 1.1 µM
IC50 ([3]; SW480, as listed in Table 3): 5.54 ± 1.07 µM
φ0 (chromatographic lipophilicity index) [4]: 5.91
IC50 [5]: 367 ± 24 µM
IC50 [6]: 144 ± 7 µM
IC50 [7]: 140 ± 20 µM
Cell cycle distribution G1, % ([8]; CH1/PA-1, 10 µM): 28 ± 1%
Cell cycle distribution G2/M, % ([8]; CH1/PA-1, 10 µM): 28 ± 5%
Cell cycle distribution S, % ([8]; CH1/PA-1, 10 µM): 44 ± 5%
Relative change in cell cycle distribution G1, % ([8]; CH1/PA-1, 10 µM): -12%
Relative change in cell cycle distribution G2/M, % ([8]; CH1/PA-1, 10 µM): 4%
Relative change in cell cycle distribution S, % ([8]; CH1/PA-1, 10 µM): 8%
Cell cycle distribution G1, % ([8]; CH1/PA-1, 20 µM): 27 ± 5%
Cell cycle distribution G2/M, % ([8]; CH1/PA-1, 20 µM): 32 ± 4%
Cell cycle distribution S, % ([8]; CH1/PA-1, 20 µM): 41 ± 5%
Relative change in cell cycle distribution G1, % ([8]; CH1/PA-1, 20 µM): -13%
Relative change in cell cycle distribution G2/M, % ([8]; CH1/PA-1, 20 µM): 8%
Relative change in cell cycle distribution S, % ([8]; CH1/PA-1, 20 µM): 5%
Cell cycle distribution G1, % ([8]; CH1/PA-1, 40 µM): 26 ± 6%
Cell cycle distribution G2/M, % ([8]; CH1/PA-1, 40 µM): 31 ± 2%
Cell cycle distribution S, % ([8]; CH1/PA-1, 40 µM): 42 ± 1%
Relative change in cell cycle distribution G1, % ([8]; CH1/PA-1, 40 µM): -14%
Relative change in cell cycle distribution G2/M, % ([8]; CH1/PA-1, 40 µM): 7%
Relative change in cell cycle distribution S, % ([8]; CH1/PA-1, 40 µM): 6%
shift of cell cycle distribution towards S and G2/M phases in total ([8]; CH1/PA‐1 cells, 40 μM): up to 14%
Cell cycle distribution G1, % ([9]; SW480, 5 µM): 44 ± 1%
Cell cycle distribution G2/M, % ([9]; SW480, 5 µM): 26 ± 2%
Cell cycle distribution S, % ([9]; SW480, 5 µM): 30 ± 4%
Relative change in cell cycle distribution G1, % ([9]; SW480, 5 µM): -4%
Relative change in cell cycle distribution G2/M, % ([9]; SW480, 5 µM): 7%
Relative change in cell cycle distribution S, % ([9]; SW480, 5 µM): -3%
Cell cycle distribution G1, % ([9]; SW480, 10 µM): 38 ± 4%
Cell cycle distribution G2/M, % ([9]; SW480, 10 µM): 20 ± 4%
Cell cycle distribution S, % ([9]; SW480, 10 µM): 42 ± 1%
Relative change in cell cycle distribution G1, % ([9]; SW480, 10 µM): -10%
Relative change in cell cycle distribution G2/M, % ([9]; SW480, 10 µM): 1%
Relative change in cell cycle distribution S, % ([9]; SW480, 10 µM): 9%
Cell cycle distribution G1, % ([9]; SW480, 20 µM): 46 ± 3%
Cell cycle distribution G2/M, % ([9]; SW480, 20 µM): 12 ± 1%
Cell cycle distribution S, % ([9]; SW480, 20 µM): 42 ± 2%
Relative change in cell cycle distribution G1, % ([9]; SW480, 20 µM): -2%
Relative change in cell cycle distribution G2/M, % ([9]; SW480, 20 µM): -7%
Relative change in cell cycle distribution S, % ([9]; SW480, 20 µM): 9%
decrease in G1 phase ([9]; SW480 cells, 10 μM): 10%
Cellular accumulation [10]: 118±35 fg/cell

Cc1c([O-])c(=S)ccn1C.Cc1ccc(C(C)C)cc1.[Cl-].[Ru+2] [Compound 3 a, Chlorido[1,2‐dimethyl‐3‐oxo‐κO‐pyridine‐4(1H)‐thionato‐κS](η^6‐p‐cymene)‐ruthenium(II)]
IC50 [1]: > 200 µM
IC50 [2]: > 200 µM
IC50 [3, 11]: 55 ± 18 µM
IC50 ([3]; SW480, as listed in Table 3): 54.6 ± 18.4 µM
φ0 (chromatographic lipophilicity index) [4]: 5.51
IC50 [5]: > 400 µM
IC50 [6]: 267 ± 14 µM
IC50 [7]: > 400 µM
Cellular accumulation [10]: 21±5 fg/cell
